Legend:
[1] = molecular target: human GLP-1R (Homo sapiens, UniProt P43220, G168S); assay: CHO GLP-1R Clone H6—Assay 1: HTRF cAMP cell-based functional agonist assay (high GLP-1R density); settings: for EC50: read-out: Assay 1 EC50, CHO GLP-1R Clone H6, cAMP HTRF, geometric mean; for Emax: read-out: Assay 1 Emax (%), CHO GLP-1R Clone H6, relative to saturating concentration of full agonist GLP-1 (1 μM), arithmetic mean
[2] = molecular target: human GLP-1R (Homo sapiens (Human), UniProt P43220, L260F); assay: CHO GLP-1R Clone C6—Assay 2: HTRF cAMP cell-based functional agonist assay (low GLP-1R density); settings: for EC50: CHO GLP-1R Clone C6, cAMP HTRF, geometric mean; for Emax: CHO GLP-1R Clone C6, relative to saturating concentration of full agonist GLP-1 (1 μM), arithmetic mean, read-out: Assay 2 Emax (%)
human GLP-1R (Homo sapiens (Human), UniProt P43220, L260F), sequence (P43220 24-463 L260F): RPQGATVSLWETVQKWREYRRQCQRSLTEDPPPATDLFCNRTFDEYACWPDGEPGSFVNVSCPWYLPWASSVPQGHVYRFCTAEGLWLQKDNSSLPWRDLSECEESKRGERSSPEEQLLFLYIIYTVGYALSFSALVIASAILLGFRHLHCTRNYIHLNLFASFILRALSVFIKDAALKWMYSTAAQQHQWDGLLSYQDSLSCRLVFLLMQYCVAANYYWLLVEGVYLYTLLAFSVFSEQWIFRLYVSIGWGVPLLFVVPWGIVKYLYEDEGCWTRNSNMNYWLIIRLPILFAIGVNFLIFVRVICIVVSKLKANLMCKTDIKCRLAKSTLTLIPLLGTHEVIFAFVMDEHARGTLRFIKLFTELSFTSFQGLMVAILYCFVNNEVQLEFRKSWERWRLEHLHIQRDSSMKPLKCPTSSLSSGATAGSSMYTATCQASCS

human GLP-1R (Homo sapiens, UniProt P43220, G168S), sequence (P43220 24-463 G168S limits assumed): as the sequence (P43220 24-463 L260F) above, with G145S, F237L counted along it

SMILES	EC50 [1] [nM]	Emax [1] [%]	EC50 [2] [nM]	Emax [2] [%]
N#Cc1ccc(COc2cccc(C3CCN(Cc4nc5ccc(C(=O)O)cc5n4Cc4cnco4)CC3)n2)c(F)c1 [Example 10A-43, 2-[(4-{6-[(4-cyano-2-fluorobenzyl)oxy]pyridin-2-yl}piperidin-1-yl)methyl]-1-(1,3-oxazol-5-ylmethyl)-1H-benzimidazole-6-carboxylic acid]	4	64	48	79
O=C(O)c1ccc2nc(CN3CCC(c4cccc(OCc5ccc(F)cc5F)n4)CC3)n(Cc3cnco3)c2c1 [Example 10A-44, 2-[(4-{6-[(2,4-difluorobenzyl)oxy]pyridin-2-yl}piperidin-1-yl)methyl]-1-(1,3-oxazol-5-ylmethyl)-1H-benzimidazole-6-carboxylic acid]	6	73	99	81
O=C(O)c1ccc2nc(CN3CCN(c4cccc(OCc5ccc(Cl)cc5F)n4)CC3)n(Cc3cnco3)c2c1 [Example 10A-45, 2-[(4-{6-[(4-chloro-2-fluorobenzyl)oxy]pyridin-2-yl}piperazin-1-yl)methyl]-1-(1,3-oxazol-5-ylmethyl)-1H-benzimidazole-6-carboxylic acid]	1	76	19	75
C[C@H]1CN(c2cccc(OCc3ccc(C#N)cc3F)n2)CCN1Cc1nc2ccc(C(=O)O)cc2n1C[C@@H]1CCO1 [Example 10A-47, 2-{[(2S)-4-{6-[(4-cyano-2-fluorobenzyl)oxy]pyridin-2-yl}-2-methylpiperazin-1-yl]methyl}-1-[(2S)-oxetan-2-ylmethyl]-1H-benzimidazole-6-carboxylic acid]	0.3	80	4.4	95
O=C(O)c1ccc2nc(CN3CCN(c4cccc(OCc5ccc(Cl)cc5F)n4)CC3)n(C[C@H]3CCO3)c2c1 [Example 10A-48]	8.6	64	140	76
N#Cc1ccc(COc2nc(C3CCN(Cc4nc5ccc(C(=O)O)cc5n4C[C@@H]4CCO4)CC3)ccc2F)c(F)c1 [Example 10A-54, 2-[(4-{6-[(4-cyano-2-fluorobenzyl)oxy]-5-fluoropyridin-2-yl}piperidin-1-yl)methyl]-1-[(2S)-oxetan-2-ylmethyl]-1H-benzimidazole-6-carboxylic acid]	0.71	81	11	100
N#Cc1ccc(COc2nc(C3CCN(Cc4nc5ccc(C(=O)O)cc5n4C[C@@H]4CCO4)CC3)ccc2F)cc1 [Example 10A-55, 2-[(4-{6-[(4-cyanobenzyl)oxy]-5-fluoropyridin-2-yl}piperidin-1-yl)methyl]-1-[(2S)-oxetan-2-ylmethyl]-1H-benzimidazole-6-carboxylic acid]	1.2	84	24	98
C[C@H]1CN(c2ccc(F)c(OCc3ccc(F)cc3F)n2)CCN1Cc1nc2ccc(C(=O)O)cc2n1C[C@@H]1CCO1 [Example 10A-56, 2-{[(2S)-4-{6-[(2,4-difluorobenzyl)oxy]-5-fluoropyridin-2-yl}-2-methylpiperazin-1-yl]methyl}-1-[(2S)-oxetan-2-ylmethyl]-1H-benzimidazole-6-carboxylic acid]	0.5	78	16	86
C[C@H]1CN(c2ccc(F)c(OCc3ccc(F)cc3F)n2)CCN1Cc1nc2ccc(C(=O)O)cc2n1C[C@H]1CCO1 [Example 10A-57]	9.4	69	160	71
C[C@H]1CN(c2cccc(OCc3ccc(F)cc3F)n2)CCN1Cc1nc2ccc(C(=O)O)cc2n1C[C@@H]1CCO1 [Example 10A-58, 2-{[(2S)-4-{6-[(2,4-difluorobenzyl)oxy]pyridin-2-yl}-2-methylpiperazin-1-yl]methyl}-1-[(2S)-oxetan-2-ylmethyl]-1H-benzimidazole-6-carboxylic acid]	0.52	70	8.5	78
